How the values were obtained:
Type in all cases: binding
[1] = biological target: T1, ternary complex of primed template nucleic acid, Bst DNA polymerase large fragment and cognate nucleotide (Geobacillus stearothermophilus, UniProt P52026); experiment: Biolayer interferometry: formation and retention of ternary complexes with different non-catalytic metal ions; settings: 2 mM test metal ion; for binding signal when ternary complexes formed on primed template nucleic acid: 100 μM correct nucleotide, 200 nM Bst polymerase, 60 s binding (FIG. 2); for ternary complex decay / stability following washing: wash without polymerase, 10 μM correct dNTP, 100 μM incorrect dNTP, 300 s (FIG. 2); for ternary complex binding signal following a wash step, expressed as a percentage of the maximum signal: wash in absence of non-bound polymerase, baseline = signal at initial nucleotide contact
T1 construct: 200 nM unlabeled Bst DNA polymerase large fragment
T1 sequence (P52026 289-876 limits assumed): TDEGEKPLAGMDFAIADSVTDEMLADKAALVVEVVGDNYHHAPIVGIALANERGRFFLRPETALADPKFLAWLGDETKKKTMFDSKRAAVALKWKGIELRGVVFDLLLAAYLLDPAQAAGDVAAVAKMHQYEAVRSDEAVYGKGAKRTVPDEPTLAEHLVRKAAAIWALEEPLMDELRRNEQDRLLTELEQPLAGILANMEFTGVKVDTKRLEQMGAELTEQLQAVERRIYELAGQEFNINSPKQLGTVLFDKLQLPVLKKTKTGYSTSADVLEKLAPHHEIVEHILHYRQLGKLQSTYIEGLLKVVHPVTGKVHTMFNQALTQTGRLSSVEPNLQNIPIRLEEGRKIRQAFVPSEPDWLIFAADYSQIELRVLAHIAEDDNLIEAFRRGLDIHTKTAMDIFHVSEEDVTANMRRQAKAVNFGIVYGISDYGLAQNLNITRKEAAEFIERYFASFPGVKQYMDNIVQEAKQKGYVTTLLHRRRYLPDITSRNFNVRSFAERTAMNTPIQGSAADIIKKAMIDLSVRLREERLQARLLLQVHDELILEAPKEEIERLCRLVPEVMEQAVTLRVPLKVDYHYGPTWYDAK
Source text: A FORTEBIO® (Menlo Park, Calif.) Octet instrument employing biolayer interferometry to measure binding reactions at the surface of a fiber optic tip was used in a multiwell plate format to assess formation and stability of ternary complexes in the presence of different non-catalytic metal ions. Template nucleic acid strands biotinylated at their 5′-ends were used to immobilize the primed template nucleic acid onto fiber optic tips functionalized with streptavidin (SA) according to standard procedures. Tips were washed in a Tris-buffered solution containing 200 mM KCl, 160 mM potassium glutamate, and 0.01% Tween-20 before commencing the cycling protocol. Binding reactions conducted using 2 mM of the test metal ion (i.e., 2 mM of the metal salt) were carried out in serial fashion using examination buffers that contained Tris-HCl (pH 8.0), 220 mM KCl, 160 mM potassium glutamate, 0.01% Tween-20, 1 mM β-mercaptoethanol, 100 μg/ml BSA, the correct nucleotide at a concentration of 100 μM, and 200 nM unlabeled Bst DNA polymerase large fragment. Salts used in the testing procedure included: SrCl2, Na3VO4, EuCl3, and CuSO4. Examination buffers in this procedure were supplemented with DMSO and betaine to control DNA secondary structure. Binding steps were carried out for 60 seconds, and were followed by wash steps using a buffer that omitted polymerase, but included 10 μM of the correct dNTP, 100 μM of the incorrect dNTP, and 2 mM of the test metal ion. Retention of the ternary complex was measured over the course of 300 seconds. Surviving ternary complexes were stripped from the primed template by exposure to a solution containing 30 mM Tris-HCl (pH 8.0), 1 M NaCl, 4 mM EDTA, 4 mM DTPA, 0.2% SDS, 0.05% Tween-20, and 3% Tween-80 for a period of 30 seconds. This was followed by exposure to a regeneration solution made Tris-HCl (pH 8.0), 220 mM KCl, 160 mM potassium glutamate, 0.01% Tween-20, 1 mM β-mercaptoethanol, 100 μg/ml BSA for 20 seconds before commencing binding of polymerase and cognate nucleotide in the presence of the next test metal ion.

[2] = biological target: T2, Bsu DNA polymerase large fragment with primed template nucleic acid (Bacillus subtilis, UniProt O34996); experiment: Biolayer interferometry: discrimination between ternary (cognate dCTP) and binary (non-cognate dGTP) complex formation, KCl titration; settings: 2 mM stabilizing cation, KCl 100-650 mM, potassium glutamate 80-640 mM (FIGS. 3, 4)
T2 construct: 350 U/ml Bsu DNA polymerase large fragment
T2 sequence (O34996 297-880 limits assumed): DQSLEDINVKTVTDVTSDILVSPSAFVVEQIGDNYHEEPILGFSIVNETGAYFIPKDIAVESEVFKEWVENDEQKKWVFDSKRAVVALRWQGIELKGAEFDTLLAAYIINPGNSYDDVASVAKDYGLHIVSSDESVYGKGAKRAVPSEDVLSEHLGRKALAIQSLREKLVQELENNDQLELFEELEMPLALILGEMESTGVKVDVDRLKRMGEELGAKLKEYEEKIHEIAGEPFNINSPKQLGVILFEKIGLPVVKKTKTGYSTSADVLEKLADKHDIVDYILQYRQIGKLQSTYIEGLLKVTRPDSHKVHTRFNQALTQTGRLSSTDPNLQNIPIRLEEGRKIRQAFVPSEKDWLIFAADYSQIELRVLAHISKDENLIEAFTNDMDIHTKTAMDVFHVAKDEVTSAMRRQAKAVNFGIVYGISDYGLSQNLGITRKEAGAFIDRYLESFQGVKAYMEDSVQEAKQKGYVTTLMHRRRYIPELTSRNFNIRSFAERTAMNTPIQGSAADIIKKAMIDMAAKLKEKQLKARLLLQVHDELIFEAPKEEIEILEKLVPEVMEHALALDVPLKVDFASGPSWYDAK
Source text: Materials and methods used in the procedure were as follows. The FORTEBIO® OCTET® instrument employing biolayer interferometry was used to measure binding reactions at the surface of a fiber optic tip in a multiwell plate format to investigate differential formation of binary and ternary complexes. Template strands biotinylated at their 5′-ends were used to immobilize the primed template nucleic acid onto fiber optic tips functionalized with streptavidin (SA) according to standard procedures. The next correct nucleotide for the biotinylated template DNA was dCTP (with dGTP being used as the model incorrect nucleotide). Tips were first equilibrated in a Tris-buffered solution containing 30 mM Tris-HCl (pH 8.0), and 0.1 mM EDTA before commencing the cycling protocol. […] When using a single contacting step to effect binding of polymerase and nucleotide to the primed template nucleic acid, the binding step was 60 seconds long, with binding interactions being monitored continuously. […] Results from interferometry monitoring were analyzed to identify formation of ternary complexes (i.e., identifying cognate nucleotide) or binary complexes (i.e., identifying non-cognate nucleotide).

[3] = tested on: tested polymerases with primed template nucleic acid; experiment: Discrimination between correct and incorrect nucleotides at higher metal cation concentration; settings: cation greater than about 5 mM; 150 mM to 300 mM monovalent metal cations

For `O=S(=O)([O-])[O-].[Cu+2]` [Cu^2+, CuSO4], the “binding signal when ternary complexes formed on primed template nucleic acid” value (from here on “binding signal … on primed template nucleic acid”) [1] was “moderately high binding signals” and the “ternary complex decay / stability following washing” value [1] was “rapid decay”.

For `[Na+].[Na+].[Na+].[O]=[V]([O-])([O-])[O-]` [V^5+, Na3VO4], the “binding signal … on primed template nucleic acid” value [1] was “moderately high binding signals” and the “ternary complex decay / stability following washing” value [1] was “rapid decay”.

In the case of `[Tb+3]` [Tb^3+], the “ternary complex binding signal following a wash step, expressed as a percentage of the maximum signal” value [1] is reported as “substantially similar to trials conducted using Eu^3+ cations”, the “ternary complex decay / stability following washing” value [1] is reported as “substantially similar to the use of Eu^3+ ions” and the “discrimination between ternary and binary complex formation” value [2] is reported as “good discrimination between ternary and binary complex formation was achievable”. For the same compound, the “ability of polymerase to discriminate between correct and incorrect nucleotides” value (“ability of polymerase” below) [3] was “reduced abilities to discriminate between correct and incorrect nucleotides”.

`[Ni+2]` [Ni^2+] was tested, and the “ability of polymerase” value [3] was “This was not the case”.

In the case of `[Cl-].[Cl-].[Sr+2]` [Sr^2+, SrCl2], the “binding signal … on primed template nucleic acid” value [1] is reported as “high binding signals”, the “ternary complex binding signal following a wash step, expressed as a percentage of the maximum signal” value [1] is reported as “about 40%” and the “ternary complex decay / stability following washing” value [1] is reported as “slower than observed with V^5+ and Cu^2+ ions”. The “ability of polymerase” value [3] was “This was not the case”.

In the case of `[Cl][Eu]([Cl])[Cl]` [Eu^3+, EuCl3], the “binding signal … on primed template nucleic acid” value [1] is reported as “high binding signals”, the “ternary complex binding signal following a wash step, expressed as a percentage of the maximum signal” value [1] is reported as “about 80%” and the “ternary complex decay / stability following washing” value [1] is reported as “substantially more stable”. For the same compound, the “discrimination between ternary and binary complex formation” value [2] was “good discrimination between ternary and binary complex formation was achievable” and the “ability of polymerase” value [3] was “reduced abilities to discriminate between correct and incorrect nucleotides”.

From patent US11248254B2, “Method and system employing distinguishable polymerases for detecting ternary complexes and identifying cognate nucleotides” (Omniome, Inc., priority 2016, dated 2022)
